Measurements: article PMC8836234, “Salicylic Acid Is Required for Broad-Spectrum Disease Resistance in Rice” (International Journal of Molecular Sciences, 2022)

T1: OsSAH1 (Oryza sativa, UniProt Q10SI2)
T1 construct: gene Os03g0122300; recombinant from E. coli BL21 (DE3), modified pGEX vector (GST purification), 3 x Myc at C-terminus
T1 sequence (Q10SI2 1-342): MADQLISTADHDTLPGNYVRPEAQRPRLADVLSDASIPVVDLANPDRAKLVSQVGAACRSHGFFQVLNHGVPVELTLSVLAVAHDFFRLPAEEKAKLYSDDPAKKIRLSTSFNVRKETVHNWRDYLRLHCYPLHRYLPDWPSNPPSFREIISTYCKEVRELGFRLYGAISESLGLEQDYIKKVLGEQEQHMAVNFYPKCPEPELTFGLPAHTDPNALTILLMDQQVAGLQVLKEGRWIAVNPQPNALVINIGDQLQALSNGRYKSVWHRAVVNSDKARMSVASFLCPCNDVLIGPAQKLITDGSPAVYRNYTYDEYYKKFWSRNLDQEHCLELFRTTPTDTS

T2: DMR6 (Arabidopsis thaliana, UniProt Q9FLV0)
T2 construct: recombinant from E. coli BL21 (DE3), modified pGEX vector (GST purification), 3 x Myc at C-terminus; wild type has Y126, A283
T2 sequence (Q9FLV0 1-341): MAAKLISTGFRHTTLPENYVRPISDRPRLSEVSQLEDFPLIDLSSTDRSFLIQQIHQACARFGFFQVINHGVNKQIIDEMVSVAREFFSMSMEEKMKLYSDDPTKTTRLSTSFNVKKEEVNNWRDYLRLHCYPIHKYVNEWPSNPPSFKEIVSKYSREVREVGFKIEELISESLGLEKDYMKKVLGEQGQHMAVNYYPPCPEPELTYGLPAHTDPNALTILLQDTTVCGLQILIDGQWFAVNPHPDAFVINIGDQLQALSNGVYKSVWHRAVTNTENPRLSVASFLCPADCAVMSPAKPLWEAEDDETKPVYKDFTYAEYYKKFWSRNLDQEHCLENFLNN

T3: OsSAH2 (Oryza sativa, UniProt B9FC47, Y127F)
T3 construct: gene Os04g0581000; recombinant from E. coli BL21 (DE3), modified pGEX vector (GST purification), 3 x Myc at C-terminus; wild type has Y127, M282, A285; gene on chromosome 4, tail-to-tail with OsSAH3
T3 sequence (B9FC47 1-340 Y127F): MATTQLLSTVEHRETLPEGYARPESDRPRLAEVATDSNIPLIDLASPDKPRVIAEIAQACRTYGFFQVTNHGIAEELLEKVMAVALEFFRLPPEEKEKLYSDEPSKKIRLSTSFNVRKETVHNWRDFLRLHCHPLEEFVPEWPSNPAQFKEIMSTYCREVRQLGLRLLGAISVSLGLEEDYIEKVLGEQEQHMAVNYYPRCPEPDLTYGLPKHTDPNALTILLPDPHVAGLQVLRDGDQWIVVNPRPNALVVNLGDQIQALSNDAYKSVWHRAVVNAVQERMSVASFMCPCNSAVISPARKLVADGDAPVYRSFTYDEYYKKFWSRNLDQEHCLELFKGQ

T4: OsSAH4 (Oryza sativa, UniProt Q8W2X5)
T4 construct: gene F3H-2; recombinant from E. coli BL21 (DE3), modified pGEX vector (GST purification), 3 x Myc at C-terminus
T4 sequence (Q8W2X5 1-342): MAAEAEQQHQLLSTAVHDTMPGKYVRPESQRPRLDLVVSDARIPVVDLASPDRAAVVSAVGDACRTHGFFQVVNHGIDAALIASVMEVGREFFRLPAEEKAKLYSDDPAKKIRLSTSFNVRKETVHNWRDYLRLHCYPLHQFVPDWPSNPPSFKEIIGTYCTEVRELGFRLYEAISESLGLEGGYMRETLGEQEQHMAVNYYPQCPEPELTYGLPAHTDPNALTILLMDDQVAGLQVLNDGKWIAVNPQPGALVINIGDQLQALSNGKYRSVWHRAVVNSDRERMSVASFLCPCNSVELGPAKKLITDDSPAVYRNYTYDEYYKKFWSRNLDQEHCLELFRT

T5: OsSAH2 (Oryza sativa, UniProt B9FC47)
T5 construct: gene Os04g0581000; recombinant from E. coli BL21 (DE3), modified pGEX vector (GST purification), 3 x Myc at C-terminus; wild type has Y127, M282, A285; gene on chromosome 4, tail-to-tail with OsSAH3
T5 sequence (B9FC47 1-340): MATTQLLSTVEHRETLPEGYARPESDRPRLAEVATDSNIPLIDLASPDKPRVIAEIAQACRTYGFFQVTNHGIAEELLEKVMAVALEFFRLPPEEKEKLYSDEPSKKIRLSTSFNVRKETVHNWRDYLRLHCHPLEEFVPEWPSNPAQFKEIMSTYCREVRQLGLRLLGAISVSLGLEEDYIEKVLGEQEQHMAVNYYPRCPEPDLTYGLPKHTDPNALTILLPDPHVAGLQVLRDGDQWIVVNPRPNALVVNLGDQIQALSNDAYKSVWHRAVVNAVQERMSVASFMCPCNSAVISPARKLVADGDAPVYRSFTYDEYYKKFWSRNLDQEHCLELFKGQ

T6: OsSAH3 (Oryza sativa, UniProt Q7XUN0)
T6 construct: gene Os04g0581100; recombinant from E. coli BL21 (DE3), modified pGEX vector (GST purification), 3 x Myc at C-terminus; wild type has F136, R138, I289, P292; gene on chromosome 4, tail-to-tail with OsSAH2
T6 sequence (Q7XUN0 1-352): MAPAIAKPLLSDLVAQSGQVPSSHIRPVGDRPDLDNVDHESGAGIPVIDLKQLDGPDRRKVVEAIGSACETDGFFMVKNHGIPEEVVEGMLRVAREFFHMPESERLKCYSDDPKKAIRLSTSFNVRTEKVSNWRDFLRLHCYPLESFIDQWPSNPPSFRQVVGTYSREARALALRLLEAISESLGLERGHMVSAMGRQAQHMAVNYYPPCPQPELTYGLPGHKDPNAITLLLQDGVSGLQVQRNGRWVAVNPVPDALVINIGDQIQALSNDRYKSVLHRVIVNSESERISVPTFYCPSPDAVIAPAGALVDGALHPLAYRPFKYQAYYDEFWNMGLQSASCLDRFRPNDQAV


Experiments:
[1] = molecular target: T1, OsSAH1; assay: LC-MS/MS of […],5-DHBA formation, substrate inhibition fit; format: biochemical; details: substrate inhibition constant, second site; 5-hydroxylation (2,5-DHBA product); 1 mM 2-oxoglutarate, 0.4 mM FeSO4, phosphate pH 6.8, 40 °C
[2] = molecular target: T2, DMR6; assay: LC-MS/MS product formation relative to wild type; format: biochemical; details: 2-oxoglutarate, FeSO4, phosphate pH 6.8, 40 °C; 2,3- and 2,5-DHBA products
[3] = molecular target: T3, OsSAH2; assay: LC-MS/MS product formation relative to wild type; format: biochemical; details: 2-oxoglutarate, FeSO4, phosphate pH 6.8, 40 °C; 2,3- and 2,5-DHBA products
[4] = molecular target: T4, OsSAH4; assay: LC-MS/MS of […],5-DHBA formation, substrate inhibition fit; format: biochemical; details: substrate inhibition constant, second site; 5-hydroxylation (2,5-DHBA product); 1 mM 2-oxoglutarate, 0.4 mM FeSO4, phosphate pH 6.8, 40 °C
[5] = molecular target: T5, OsSAH2; assay: as above; format: biochemical; details: substrate inhibition constant, second site; 5-hydroxylation (2,5-DHBA product); 1 mM 2-oxoglutarate, 0.4 mM FeSO4, phosphate pH 6.8, 40 °C
[6] = molecular target: T6, OsSAH3; assay: as above; format: biochemical; details: substrate inhibition constant, second site; 5-hydroxylation (2,5-DHBA product); 1 mM 2-oxoglutarate, 0.4 mM FeSO4, phosphate pH 6.8, 40 °C
[7] = substrate: O=C(O)c1ccccc1O; assay: purified protein; format: biochemical, Oryza sativa; details: 5-hydroxylation (2,5-DHBA product), 1 mM 2-oxoglutarate, 0.4 mM FeSO4, ascorbate, phosphate pH 6.8, 40 °C

Row | Ksi [1] [µM] | Ksi [4] [µM] | Ksi [5] [µM] | Ksi [6] [µM] | Molecule | LC-MS/MS product formation relative to wild type [2] | relative enzyme activity [3] | Km [7] [µM] | kcat [7] [s⁻¹] | kcat/Km [7] [M⁻¹ s⁻¹]
1 | 27.13 ± 21.11 | 26.52 ± 10.71 | 2.14 ± 1.86 | 365.12 ± 30.58 | O=C(O)c1ccccc1O [SA, 2-hydroxy benzoic acid] | The higher activity of DMR6 than that of OsSAH2 was also supported by these parameters | OsSAH2^Y127F mutant showed a similar level of SA5H activity as that of OsSAH2 | – | – | –
2 | – | – | – | – | OsSAH3 (Oryza sativa Japonica Group) (protein, recombinant from E. coli BL21 (DE3), modified pGEX vector (GST purification), 3 x Myc at C-terminus; wild type has F136, R138, I289, P292; gene on chromosome 4, tail-to-tail with OsSAH2) MAPAIAKPLLSDLVAQSGQVPSSHIRPVGDRPDLDNVDHESGAGIPVIDLKQLDGPDRRKVVEAIGSACETDGFFMVKNHGIPEEVVEGMLRVAREFFHMPESERLKCYSDDPKKAIRLSTSFNVRTEKVSNWRDFLRLHCYPLESFIDQWPSNPPSFRQVVGTYSREARALALRLLEAISESLGLERGHMVSAMGRQAQHMAVNYYPPCPQPELTYGLPGHKDPNAITLLLQDGVSGLQVQRNGRWVAVNPVPDALVINIGDQIQALSNDRYKSVLHRVIVNSESERISVPTFYCPSPDAVIAPAGALVDGALHPLAYRPFKYQAYYDEFWNMGLQSASCLDRFRPNDQAV | – | – | 197.08 ± 19.42 | 0.256 ± 0.0332 | 1290
